According to patent publication US20240277682A1, “PHARMACEUTICAL HYDRONIDONE FORMULATIONS FOR DISEASES” (Gyre Therapeutics, Inc., priority 2021, published 2024):

Experiments:
human CYP 1A2 = target: T1, human CYP 1A2 (Homo sapiens, UniProt P05177); assay: biochemical
T1 sequence (P05177 1-516): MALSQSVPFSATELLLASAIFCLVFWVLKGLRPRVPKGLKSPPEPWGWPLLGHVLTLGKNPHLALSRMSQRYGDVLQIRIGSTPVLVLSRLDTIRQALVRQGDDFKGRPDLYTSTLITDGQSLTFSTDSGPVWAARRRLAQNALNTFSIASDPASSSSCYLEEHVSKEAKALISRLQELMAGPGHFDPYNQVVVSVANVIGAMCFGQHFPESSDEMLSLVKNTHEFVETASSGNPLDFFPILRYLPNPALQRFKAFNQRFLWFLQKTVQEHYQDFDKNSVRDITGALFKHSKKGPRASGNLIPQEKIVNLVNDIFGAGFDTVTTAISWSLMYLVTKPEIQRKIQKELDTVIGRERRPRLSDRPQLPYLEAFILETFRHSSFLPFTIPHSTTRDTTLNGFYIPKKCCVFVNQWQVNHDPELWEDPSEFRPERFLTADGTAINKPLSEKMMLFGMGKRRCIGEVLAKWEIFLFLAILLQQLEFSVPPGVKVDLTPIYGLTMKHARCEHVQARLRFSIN
Experimental: (§1) In vitro study investigated whether Hydronidone is inhibitor for human cytochrome P450 (CYP450). The effects of different Hydronidone concentrations were determined by the fluorescence intensity of metabolic substrates of CYP1A2, 2C9, 2C19, 2 D6 and 3A4, produced under the effect of the relevant enzyme. The respective IC50 value were calculated in the event of observed inhibition with hydronidone.

human CYP 2 D6 = human CYP 2 D6 (Homo sapiens, UniProt P10635); assay: CYP450 inhibition, fluorescence of metabolic substrates
Experimental: as §1

human CYP 2C19 = human CYP 2C19 (Homo sapiens, UniProt P33261); assay: as above
Experimental: as §1

human CYP 2C9 = human CYP 2C9 (Homo sapiens, UniProt P11712); assay: as above
Experimental: as §1

human CYP 3A4 = human CYP 3A4 (Homo sapiens, UniProt P08684); assay: as above
Experimental: as §1

[1] = Parallel group PK study of multiple ascending oral doses (Example 9); type: in vivo, human
Experimental: This was randomized, open-label, parallel group PK study of multiple ascending oral doses of Hydronidone in healthy Chinese subjects.
In this study, ascending oral doses of Hydronidone of 200 mg, 400 mg, and 600 mg TID, were administered to 27 healthy subjects (15 males and 12 females) divided into 3 groups (9 subjects/group), for four (4) consecutive days. This was an inpatient study. Hydronidone was administered under fasted conditions. Blood and urine samples were collected for PK assessments. The PK assessments were performed upon single (after the first dose) and multiple dosing. Standard safety evaluations were also performed including physical examination, ECG, hematology, serum biochemistry and urinalysis.

[2] = Safety, tolerability and PK of single doses, 7-day and 4-week multiple oral doses (Example 10); type: in vivo, human
Experimental: This was a randomized, open-label, study of safety, tolerability and PK of single doses, 7-day, and 4-week multiple oral doses of Hydronidone in healthy Chinese subjects.
This study was conducted in three parts. In the first part single escalating doses of Hydronidone of 15 mg, 30 mg, 60 mg, 90 mg, and 120 mg/day were administered to six (6), eight (8), eight (8), six (6), six (6) healthy subjects, respectively, as per the Fibonacci Escalating Method (modified Fibonacci method). […] As no adverse experiences were reported at any dose level, the two highest single dose levels of 90 mg and 120 mg of Hydronidone were selected for the second part of the study, and were administered TID to 6 subjects each, for seven consecutive days. Thus, total daily doses of Hydronidone in these two dose groups were 270 mg and 360 mg, respectively. All subjects completed the seven-day dosing regimen without premature discontinuation. No clinically-significant abnormal changes in vital signs, ECG and laboratory test results of each group of subjects were found. In the third part of the study, six (6) subjects were given oral Hydronidone at a daily dose of 60 mg TID (total daily dose of 180 mg) for four (4) consecutive weeks. All subjects completed the seven-day dosing regimen without premature discontinuation. No clinically-significant abnormal changes in vital signs, ECG and laboratory test results of each group of subjects were found.
PK assessments were performed in each part of the study. In the single part of the study, the PK parameters also included food effect assessment.

[3] = test system: liver fibrosis due to chronic Hepatitis B; assay: Phase II study in subjects with liver fibrosis due to chronic Hepatitis B, 52 weeks, Entecavir basic treatment (Examples 11-21); type: in vivo, human
Experimental: This is a Phase II, randomized, double-blind, placebo-controlled, Entecavir-Basic Treatment, multi-center, dose-ranging study on the efficacy and safety of Hydronidone when administered to Chinese subjects with liver fibrosis due to chronic Hepatitis B for 52 consecutive weeks.
Approximately 240 eligible subjects, approximately 60 subjects per dose cohort, are planned to be enrolled in the study and treated daily with Hydronidone oral doses of 30 mg, 60 mg. or 120 mg TID (total daily doses of […], […], and 360 mg, respectively) for 52 consecutive weeks or placebo, concomitantly with basic anti-viral treatment with Entecavir at a daily dose of 0.5 mg. In parallel, a group of 12 subjects will be evaluated for PK.

SMILES: Cc1ccc(=O)n(-c2ccc(O)cc2)c1 [Hydronidone, N-(4-hydroxyphenyl)-5-Methyl-2-pyridone]
- IC50 (human CYP 1A2): > 100 µM
- IC50 (human CYP 2 D6): > 100 µM
- IC50 (human CYP 2C19): > 100 µM
- IC50 (human CYP 2C9): > 100 µM
- IC50 (human CYP 3A4): > 100 µM
- number of adverse events reported ([1]; 200 mg TID and 400 mg TID multiple-dose groups, mild): 7 adverse events
- dose proportionality of exposure ([1]; 200-600 mg TID): increasing with the dose but without strict dose proportionality
- deaths and SAEs ([1]; 200-600 mg TID, 4 days): No deaths nor SAEs were reported
- safety and tolerability ([1]; 200-600 mg TID, 4 days): safe and well tolerated
- exposure by sex ([1]; across dose levels): Male subjects had lower exposures as compared to female subjects
- Tmax ([1]; both sexes, human, plasma, oral, 200, 400, 600 mg TID, fasted, healthy Chinese subjects): ~60 min
- accumulation ([1]; single vs multiple dosing, TID for 4 days): no obvious accumulation
- plasma level at 36 hrs. post-dose ([1]; upon single dosing, parent drug and major metabolites): undetectable
- maximum tolerated single oral dose ([2]; healthy subjects): 120 mg
- Tmax ([2]; human, in vivo, po, 120 mg): 36 ± 29.4 min
- QTc interval ([2]; in vivo): no abnormal prolongation of the QTc interval
- subjects with increase in T-BIL and D-BIL post-dose values ([2]; in vivo): Three
- Ishak score improvement in patients of significant fibrosis ([3]; 52 weeks): consistent with the results of primary endpoint analysis
- improvement in HBeAg(−) vs HBeAg(+) patients ([3]; 52 weeks): better than in HbeAg(+) patients
- response in HBV DNA+ patients ([3]; HBV DNA+ after 52 weeks Entecavir therapy, Ishak>3): all patients (Ishak>3) responded
- Ishak score ≥1 (primary endpoint) ([3]; after 52 weeks of therapy, with Entecavir): significantly lower the Ishak score
- intra group Ishak score change ([3]; after 52 weeks, all drug groups): statistically significant decline of Ishak score≥1
- change of liver stiffness measurement LSM ([3]; after 52 weeks, all drug groups, intra group P<0.01): decline of LSM(kPa)
- Ishak score changes ([3]; baseline HBeAg (+) patients after 52 weeks): statistical significant changes when dose groups are combined
- Ishak score changes ([3]; baseline HBeAg (−) patients after 52 weeks): statistical significant changes when dose groups are combined
- fibrosis in patients of significant fibrosis and cirrhosis ([3]; combination of 270 mg and 360 mg groups): can improve fibrosis
- fibrosis in patients of significant fibrosis and cirrhosis ([3]; combination of all drug groups): can improve fibrosis
- LSM scores ([3]; combination of drug groups, Advanced Fibrosis (Ishak≥4)): showed statistical significance
- best dose group (patients of significant fibrosis) ([3]; total daily dose, 52 weeks): 270 mg
